# Test results reported in PMC7932537, “Quantitative profiling of protease specificity” (PLoS Computational Biology, 2021).
# Key:
# [1] = tested on: MMP-2; experiment: Substrate phage display with NGS: relative probability (RP) of P3-P1' tetramer clusters; type: biochemical, human; conditions: for avg_RP: MMP2 - no binning; for relative probability (RP) of matching tetramer: P3-P1' tetramer matching the MS detected MMP2 cleavage sequence, RP_above_4.5
# [2] = tested on: MMP-9; experiment: as above; type: biochemical, human
# [3] = RP of the P3-P1' tetramer cluster contained in the hexamer, 200 nM MMP-2, 2 h, 37°C, two rounds of selection
# [4] = MMP9, RP of the P3-P1' tetramer contained in the hexamer substrate (substrate phage display, NGS)
# [5] = RP according to MMP2, P3-P1' tetramer of unique physiologic MMP2 substrates from MEROPS
# [6] = RP of the P3-P1' tetramer, MMP2 substrate phage display/NGS, tetramers of physiologic MEROPS substrates common to MMP2 and MMP9
# [7] = RP according to MMP9, P3-P1' tetramer of unique physiologic MMP9 substrates from MEROPS
# [8] = RP of the P3-P1' tetramer, MMP9 substrate phage display/NGS, tetramers of physiologic MEROPS substrates common to MMP2 and MMP9
# [9] = average relative probability of the tetramer, redundant tetramers averaged out
# [10] = tetramer projected onto MMP-9 cleavage sites determined by Prudova et al. (2010)
# [11] = tetramer probability in MMP9 set / naive library, 200 nM protease, 2 h, 37°C
# [12] = MMP2, RP of matching P3-P1' tetramer, common set of MMP2-9 selectome, RP above KL threshold
# [13] = RP of matching tetramer, common MMP2-9 selectome
# [14] = MMP9, RP of matching P3-P1' tetramer, common set of MMP2-9 selectome
# [15] = MMP9, RP of the P3-P1' tetramer matching the MS detected cleavage, RP above 4.7, substrate phage display with NGS
# [16] = RP of matching tetramer, common MMP2-9 selectome, RP above KL threshold
# [17] = average relative probability of the P3-P1' tetramer, redundant tetramers have been averaged out
substance,measurement,setting,value
PGPIGI,relative probability (RP),[1]; [3],31.281
same,relative probability (RP),[2]; [4],46.0584
PGPIGW,relative probability (RP),[1]; [3],31.1565
same,relative probability (RP),[2]; [4],36.9425
PHGLAT,relative probability (RP),[1]; [3],32.9009
same,relative probability (RP),[2]; [4],46.2798
PHGYKG,relative probability (RP),[1]; [3],24.9359
same,relative probability (RP),[2]; [4],44.1642
PHNILS,relative probability (RP),[1]; [3],24.3767
same,relative probability (RP),[2]; [4],42.0557
PHPRLL,relative probability (RP),[1]; [3],23.2612
same,relative probability (RP),[2]; [4],38.6219
PIQLQS,relative probability (RP),[1]; [3],19.2979
same,relative probability (RP),[2]; [4],35.2784
PIQW,MMP2 relative probability (RP),"[1]; MMP2 tetramers from unique substrates, unrounded values",8.258
same,Relative probability (RP) rank,[1]; [5],5694
same,relative probability (RP),[1]; [5],8.26
same,relative probability (RP) (acc.to MMP2),[1]; [6],8.26
same,corresponding MMP9 relative probability (RP),"[2]; MMP2 tetramers from unique substrates, RP of same tetramer for MMP9",1.638
same,Relative probability (RP) rank,[2]; [7],11221
same,relative probability (RP),[2]; [7],1.64
same,relative probability (RP) (acc.to MMP9),[2]; [8],1.64
PKALPY,relative probability (RP),[1]; [3],34.4858
same,relative probability (RP),[2]; [4],48.3581
PKFL [P3-P1' tetramer cluster],avg_RP,[1]; [9],23.745
same,relative probability (RP),[2]; [10],42.75
PKGA,relative probability (RP) (acc.to MMP2),[1]; [6],0
same,relative probability (RP) (acc.to MMP9),[2]; [8],1.22
PKGQ,relative probability (RP) (acc.to MMP2),[1]; [6],21.45
same,relative probability (RP) (acc.to MMP9),[2]; [8],35.93
PKGYQG,relative probability (RP),[1]; [3],30.7046
same,relative probability (RP),[2]; [4],46.8538
PKKL,relative probability (RP) (acc.to MMP2),[1]; [6],8.1
same,relative probability (RP) (acc.to MMP9),[2]; [8],23.95
PKWM [P3-P1' tetramer cluster],avg_RP,[1]; [9],23.7433
same,relative probability (RP),[2]; [11],51.5185
PLAV,relative probability (RP) (acc.to MMP2),[1]; [12],29.15
same,relative probability (RP) of matching tetramer,[1],29.15
same,relative probability (RP) (acc.to MMP2),[1]; [13],29.15
same,relative probability (RP) (acc.to MMP9),[2]; [14],44.77
same,relative probability (RP),[2]; [15],44.77
same,relative probability (RP) (acc.to MMP9),[2]; [16],44.77
PLNV,avg_RP,[1]; [17],24.9266
same,relative probability (RP) (acc.to MMP2),[1]; [12],24.93
same,relative probability (RP) of matching tetramer,[1],24.93
same,relative probability (RP) (acc.to MMP2),[1]; [13],24.93
same,relative probability (RP) (acc.to MMP9),[2]; [14],43.38
same,relative probability (RP),[2]; [15],43.38
same,relative probability (RP) (acc.to MMP9),[2]; [16],43.38
PLQLQT,relative probability (RP),[1]; [3],30.1017
same,relative probability (RP),[2]; [4],45.7856
PLRQIG,relative probability (RP),[1]; [3],11.8624
same,relative probability (RP),[2]; [4],29.0862
PLSL,avg_RP,[1]; [17],33.5282
same,relative probability (RP) (acc.to MMP2),[1]; [13],33.53
same,relative probability (RP),[2]; [15],48.17
same,relative probability (RP) (acc.to MMP9),[2]; [16],48.17
PLTL,avg_RP,[1]; [17],24.2603
same,relative probability (RP) (acc.to MMP2),[1]; [12],24.26
same,relative probability (RP) of matching tetramer,[1],24.26
same,relative probability (RP) (acc.to MMP2),[1]; [13],24.26
same,relative probability (RP) (acc.to MMP9),[2]; [14],41.2
same,relative probability (RP),[2]; [15],41.2
same,relative probability (RP) (acc.to MMP9),[2]; [16],41.2
PMAL,avg_RP,[1]; [9],34.1737
same,relative probability (RP) (acc.to MMP2),[1]; [13],34.17
same,relative probability (RP),[2]; [15],48.95
same,relative probability (RP) (acc.to MMP9),[2]; [16],48.95
PMALMD,relative probability (RP),[1]; [3],34.1737
same,relative probability (RP),[2]; [4],48.9468
PMAM [P3-P1' tetramer cluster],avg_RP,[1]; [9],30.2676
same,relative probability (RP),[2]; [11],51.1831
PMDIHA,relative probability (RP),[1]; [3],8.254
same,relative probability (RP),[2]; [4],39.7367
PMFI,relative probability (RP) (acc.to MMP2),[1]; [13],8.26
same,relative probability (RP),[2]; [15],35.87
same,relative probability (RP) (acc.to MMP9),[2]; [16],35.87
PNSM,relative probability (RP) (acc.to MMP2),[1]; [12],14.95
same,relative probability (RP) of matching tetramer,[1],14.95
same,relative probability (RP) (acc.to MMP2),[1]; [13],14.95
same,relative probability (RP) (acc.to MMP9),[2]; [14],27.58
same,relative probability (RP),[2]; [15],27.58
same,relative probability (RP) (acc.to MMP9),[2]; [16],27.58
PPGA,relative probability (RP) (acc.to MMP2),[1]; [6],0
same,relative probability (RP) (acc.to MMP9),[2]; [8],0.07
PPGE,relative probability (RP) (acc.to MMP2),[1]; [6],0
same,relative probability (RP) (acc.to MMP9),[2]; [8],0.11
PPGK,relative probability (RP) (acc.to MMP2),[1]; [6],0.14
same,relative probability (RP) (acc.to MMP9),[2]; [8],0
PPGL [P3-P1' tetramer cluster],relative probability (RP) (acc.to MMP2),[1]; [6],24.36
same,relative probability (RP) (acc.to MMP9),[2]; [8],34.4
same,relative probability (RP),[2]; [10],34.4
PPGS,relative probability (RP) (acc.to MMP2),[1]; [6],0.1
same,relative probability (RP) (acc.to MMP9),[2]; [8],0.2
PPPL,relative probability (RP) (acc.to MMP2),[1]; [12],13.03
same,relative probability (RP) of matching tetramer,[1],13.03
same,relative probability (RP) (acc.to MMP2),[1]; [13],13.03
same,relative probability (RP) (acc.to MMP9),[2]; [14],14.18
same,relative probability (RP),[2]; [15],14.18
same,relative probability (RP) (acc.to MMP9),[2]; [16],14.18
PQGF,relative probability (RP) (acc.to MMP2),[1]; [6],27.05
same,relative probability (RP) (acc.to MMP9),[2]; [8],37.1
